These results are taken from ChEMBL document CHEMBL1153064, “From lead to preclinical candidate: optimization of beta-homophenylalanine based inhibitors of dipeptidyl peptidase IV” (Bioorg Med Chem Lett, 2009).

Structures are written as SMILES.

This series can be described thus: in vitro. The note with it: human.

A word on the half-life: it is the time in which the quantity being followed falls by half. Read a high half-life as slow loss. As to `N[C@@H](CC(=O)N1CCC[C@H]1COCC1CC1)Cc1cc(F)c(F)cc1F`, under “microsomes”, the half-life at 0.75 h, 3 µM amounted to 30 min.

For `N[C@@H](CC(=O)N1CCC[C@H]1CNC(=O)C1CCC1)Cc1cc(F)c(F)cc1F`, the half-life at 0.75 h, 3 µM (liver microsomes) amounted to 38 min.

Compound `N[C@@H](CC(=O)N1CCC[C@H]1CNC(=O)C1CCCC1)Cc1cc(F)c(F)cc1F` gave a half-life at 0.75 h, 3 µM (liver microsomes) of 71 min.

In the case of `N[C@@H](CC(=O)N1CCC[C@H]1CNC(=O)CC(F)(F)F)Cc1cc(F)c(F)cc1F`, the half-life at 0.75 h, 3 µM (liver microsomes) is greater than 120 min.
